Tested on: Pseudomonas aeruginosa ATCC 15442
Assay: Biofilm test on glass surfaces (microscope slides, SafraninO staining)
Format: cell-based
Conditions: 6 hours incubation; for biofilm reduction (relative to the control without active substance): first range finding experiments (FIG. 1)
Procedure: (b) Use of Alkyloxylactones for the Reduction of Biofilms on Glass Surfaces.
The germ Pseudomonas aeruginosa ATCC 15442 is cultivated at 37° C. on Caso-Agar overnight. A CFU (Colony Eorming Unit) of solid medium is incubated in 50 ml Caso-broth at 37° C. for 7 hours and 150 rpm (1. passage). 100 μl germs from the washed liquid culture are carried over into 50 ml fresh Caso-nutrient medium and incubated at 37° C. for approximately 16 hours and 150 rpm. (2. Passage). A germ count of 10^6 CFU/ml is used from this second passage in the biofilm test. For the biofilm test, the germs in the above-mentioned concentration, together with a diluted complete medium (20 times with DGHM-water diluted TBY), are pipetted into a micro-titration plate (6-position chamber), which is used as the miniaturized biofilm test system. The active substances under test are added in the desired concentration to the mixture (3 ml). As controls, first, attempts were made with active substances, but without germs, as the active substances could already have an inherent color (negative control); secondly, diluted complete medium with germs, but without the active substances were also used as controls. In addition, 1 sterile glass plate (microscope slide), size 18×18, on the surface of which the biofilm growth is investigated, is placed into each of the 6-position chambers. For each starting material, triple determinations are carried out, i.e. three glass slides are investigated per starting material. The 6-position plates are shaken for 6 or 24 hours at 30° C. and 60 rpm. After the predetermined incubation times, 1 ml per starting material are removed for germ count determination, diluted in trypton-NaCl solution and plated out on Caso-Agar. The resulting plates are incubated for 24 hours at 37° C. and then counted. The slide glasses are taken out of the 6-positions to be dried at room temperature and then dyed in new 6-positions with 3 ml 0.01% SafraninO-solution (made up in sterile water) for 15 minutes. The colorant solution is then siphoned off, non-bound colorant is removed with water from the slide glasses and the colored slide glasses dried. The colored and dried surfaces of the slide glasses are scanned and evaluated using Corel Draw paint 9. In order to be able to subtract the background value (of the glass) from the measured value, additional untreated slide glasses are also scanned.

[1] = 100 ppm, DMSO control = 100% (FIG. 2)
[2] = 50 ppm and 100 ppm, control without active substance = 100% (FIG. 1)

Compound: CCCCCCCOC1C(=O)OCC1(C)C (stereo not drawn) [Example 188, Heptyloxypantolactone]
- biofilm reduction (with respect to the DMSO control) [1]: more than 40%

Compound: CCCCCCCCO[C@H]1C(=O)OCC1(C)C [Example H33, a-Octyloxy-D-(−)-pantolactone]
- biofilm reduction (relative to the control without active substance) (100 ppm): more than 30%

Compound: CCCCOC1CCOC1=O (stereo not drawn) [Example H99, butyloxybutyrolactone]
- effect on biofilm formation [2]: only a moderate effect

Compound: CCCCOC1C(=O)OCC1(C)C (stereo not drawn) [Example H123, butyloxypantolactone]
- effect on biofilm formation [2]: only a moderate effect

Compound: CCCCCCCCOC1CCOC1=O (stereo not drawn) [Example H128, a-Octyloxy-γ-butyrolactone]
- biofilm reduction (relative to the control without active substance) (100 ppm): approximately 40%
- reduction in biofilm inhibition (on increasing the concentration of active substance, it precipitated out, result not shown): 20%

Compound: CCCCCCCCCCCCCCCCOC1CCOC1=O (stereo not drawn) [hexadecylbutyrolactone, a-hexadecyloxy-γ-butyrolactone]
- effect on biofilm formation [1]: best biofilm reduction

Compound: O=C1OCCC1O (stereo not drawn) [hydroxybutyrolactone, Hydroxybutyrolactone, reference compound]
- effect on biofilm formation [1]: did not show any notable effect

Compound: CC1(C)COC(=O)C1O (stereo not drawn) [pantolactone, Pantolactone, reference compound]
- effect on biofilm formation [1]: did not show any notable effect

From patent US7825268B2, “Alkoxylactones, alkoxylactams and alkoxythiolactams for controlling processes based on microbial interaction” (Henkel AG & Co. KGaA, priority 2003, dated 2010)
